Measured values: patent US11701354B2, “Pyrazolo[3,4-b]pyrazine derivatives as SHP2 phosphatase inhibitors” (Relay Therapeutics, Inc., priority 2017, dated 2023)

Molecular target: SHP2 (Homo sapiens (Human), UniProt Q06124)
Assay: SHP2 Allosteric Inhibition Assay (DiFMUP prompt fluorescence)
Type: biochemical
Settings: 0.25 nM SHP2 activated with 0.5 μM peptide IRS1_pY1172(dPEG8)pY1222; substrate DiFMUP 100 μM
Text: SHP2 Allosteric Inhibition Assay.
SHP2 is allosterically activated through binding of bis-tyrosyl-phorphorylated peptides to its Src Homology 2 (SH2) domains. The latter activation step leads to the release of the auto-inhibitory interface of SHP2, which in turn renders the SHP2 protein tyrosine phosphatase (PTP) active and available for substrate recognition and reaction catalysis. The catalytic activity of SHP2 was monitored using the surrogate substrate DiFMUP in a prompt fluorescence assay format.
More specifically, the phosphatase reactions were performed at room temperature in 96-well black polystyrene plate, flat bottom, low flange, non-binding surface (Corning, Cat #3575) using a final reaction volume of 50 μl and the following assay buffer conditions: 60 mM HEPES, pH 7.2, 75 mM NaCl, 75 mM KCl, 1 mM EDTA 0.005% Brij-35, 5 mM DTT.
The inhibition of SHP2 by compounds of the disclosure (concentrations varying from 0.003-100 μM) was monitored using an assay in which 0.25 nM of SHP2 was incubated with of 0.5 μM of peptide IRSl_pY1172(dPEG8)pY1222 (sequence: H2N-LN(pY)IDLDLV(dPEG8)LST(pY)ASINFQK-amide). After 30-60 minutes incubation at 25° C. the surrogate substrate DiFMUP (Invitrogen, cat #D6567, 100 μM final) was added to the reaction and the conversion of DiFMUP to 6,8-difluoro-7-hydroxyl-4-methylcoumarin (DiFMU) was monitored continuously for 10 minutes with excitation at 355 nm and emission at 460 nm using a microplate reader (PolarStar, BMG). The inhibitor dose response curves were analyzed using normalized IC50 regression curve fitting with control based normalization.
Biochemical assay results for compounds of the disclosure are shown in examples and Table 1. In Table 1, A means an IC50 of less than 1 μM: B means an IC50 equal to 1 μM but less than 10 μM; and C means an IC50 of 10 μM or more.

IC50 [nM] | SMILES
1000 to 10000 | CN(c1cnc2c(-c3cccc(Cl)c3F)n[nH]c2n1)[C@H]1CCC[C@H]1N (mixture of isomers) [Example 1]
1000 to 10000 | N[C@@H]1CCCC[C@H]1Nc1cnc2c(-c3cccc(Cl)c3F)n[nH]c2n1 (mixture of isomers) [Example 5]
< 1000 | NC[C@H]1CCCC[C@H]1Nc1cnc2c(-c3cccc(Cl)c3F)n[nH]c2n1 (mixture of isomers) [Example 13]
< 1000 | NC[C@H]1CCCC[C@@H]1Nc1cnc2c(-c3cccc(Cl)c3F)n[nH]c2n1 (mixture of isomers) [Example 14]
< 1000 | CN(c1cnc2c(-c3cccc(Cl)c3F)n[nH]c2n1)[C@H]1CCCC[C@@H]1N (mixture of isomers) [Example 19]
< 1000 | CN(c1cnc2c(-c3cccc(Cl)c3F)n[nH]c2n1)[C@H]1CCCC[C@H]1N (mixture of isomers) [Example 20]
1000 to 10000 | N[C@@H]1CCCC[C@@H]1Nc1cnc2c(-c3cccc(Cl)c3F)n[nH]c2n1 (single isomer, unassigned) [Example 7]
1000 to 10000 | CN(c1cnc2c(N3CCCc4ncccc43)n[nH]c2n1)[C@@H]1CCC[C@@H]1N (single isomer, unassigned) [Example 8]
≥ 10000 | CN(c1cnc2c(N3CCCc4ncccc43)n[nH]c2n1)[C@@H]1COC[C@@H]1N (single isomer, unassigned) [Example 10]
≥ 10000 | CN(c1cnc2c(N3CCCc4ncccc43)n[nH]c2n1)[C@H]1COC[C@H]1N (single isomer, unassigned) [Example 11]
< 1000 | NC[C@@H]1CCCC[C@@H]1Nc1cnc2c(-c3cccc(Cl)c3F)n[nH]c2n1 (single isomer, unassigned) [Example 15]
1000 to 10000 | NC[C@H]1CCCC[C@H]1Nc1cnc2c(-c3cccc(Cl)c3F)n[nH]c2n1 (single isomer, unassigned) [Example 17]
1000 to 10000 | NC[C@@H]1CCCC[C@H]1Nc1cnc2c(-c3cccc(Cl)c3F)n[nH]c2n1 (single isomer, unassigned) [Example 18]
1000 to 10000 | CN(c1cnc2c(-c3cccc(Cl)c3F)n[nH]c2n1)[C@H]1CCCC[C@@H]1N (single isomer, unassigned) [Example 23]
< 1000 | CN(c1cnc2c(-c3cccc(Cl)c3F)n[nH]c2n1)[C@@H]1CCCC[C@H]1N (single isomer, unassigned) [Example 24]
< 1000 | CN(c1cnc2c(-c3cccc(Cl)c3F)n[nH]c2n1)[C@@H]1CCC[C@@H]1CN (single isomer, unassigned) [Example 26]
< 1000 | CN(c1cnc2c(-c3cccc(Cl)c3F)n[nH]c2n1)[C@H]1CCC[C@@H]1CN (single isomer, unassigned) [Example 27]
< 1000 | CN(c1cnc2c(-c3cccc(Cl)c3F)n[nH]c2n1)[C@H]1CCC[C@H]1CN (single isomer, unassigned) [Example 28]
< 1000 | CN(c1cnc2c(-c3cccc(Cl)c3F)n[nH]c2n1)[C@@H]1CCC[C@H]1CN (single isomer, unassigned) [Example 29]
≥ 10000 | CN(C[C@@H]1CCC[C@H]1N)c1cnc2c(N3CCCc4ncccc43)n[nH]c2n1 (single isomer, unassigned) [Example 31]
≥ 10000 | CN(C[C@H]1CCC[C@@H]1N)c1cnc2c(N3CCCc4ncccc43)n[nH]c2n1 (single isomer, unassigned) [Example 32]
1000 to 10000 | CN(c1cnc2c(N3CCCc4ncccc43)n[nH]c2n1)[C@@H]1CCCC[C@@H]1N (single isomer, unassigned) [Example 34]

IC50 [nM] | SMILES
< 1000 | CN(c1cnc2c(-c3cccc(Cl)c3F)n[nH]c2n1)[C@@H]1CCC[C@H]1N [Example 2]
< 1000 | CN(c1cnc2c(-c3cccc(Cl)c3F)n[nH]c2n1)[C@H]1CCC[C@@H]1N [Example 3]
< 1000 | CN(c1cnc2c(-c3cccc(Cl)c3F)n[nH]c2n1)[C@@H]1CCC[C@@H]1N [Example 4]
1000 to 10000 | N[C@H]1CCCC[C@@H]1Nc1cnc2c(-c3cccc(Cl)c3F)n[nH]c2n1 [Example 6]
≥ 10000 | CN(c1cnc2c(N3CCCc4ncccc43)n[nH]c2n1)[C@H]1CCC[C@H]1N [Example 9]
< 1000 | CN(c1cnc2c(-c3cccc(Cl)c3F)n[nH]c2n1)[C@@H]1CCCC[C@@H]1N [Example 21]
< 1000 | CN(C[C@H]1CC[C@H](N)C1)c1cnc2c(-c3cccc(Cl)c3F)n[nH]c2n1 [Example 25]
< 1000 | CN(c1cnc2c(-c3ccnc(Cl)c3F)n[nH]c2n1)[C@@H]1CCCC[C@@H]1N [Example 30]
≥ 10000 | CN(c1cnc2c(N3CCCc4ncccc43)n[nH]c2n1)[C@H]1CCCC[C@H]1N [Example 33]
≥ 10000 | CN(c1cnc2c(N3CCCc4ncccc43)n[nH]c2n1)[C@@H]1COCC[C@@H]1N [Example 35]
1000 to 10000 | CN(c1cnc2c(N3CCCc4ncccc43)n[nH]c2n1)[C@@H]1CCOC[C@@H]1N [Example 36]
≥ 10000 | CN(c1cnc2c(N3CCCc4ncccc43)n[nH]c2n1)[C@H]1CCOC[C@H]1N [Example 37]
< 1000 | CN(c1cnc2c(-c3cccc(Cl)c3F)n[nH]c2n1)[C@@H]1CCCC[C@H]1CN [Example 38]
< 1000 | CN(c1cnc2c(-c3cccc(Cl)c3F)n[nH]c2n1)[C@H]1CCCC[C@H]1CN [Example 39]
< 1000 | CN(c1cnc2c(-c3cccc(Cl)c3F)n[nH]c2n1)[C@H]1CCCC[C@@H]1CN [Example 40]
< 1000 | CN(c1cnc2c(-c3cccc(Cl)c3F)n[nH]c2n1)[C@@H]1CCCC[C@@H]1CN [Example 41]
< 1000 | CN(c1cnc2c(Sc3ccccc3Cl)n[nH]c2n1)[C@@H]1CCCC[C@@H]1N [Example 42]
< 1000 | CN(c1cnc2c(Sc3ccnc4[nH]ccc34)n[nH]c2n1)[C@@H]1CCCC[C@@H]1N [Example 43]
1000 to 10000 | CN(c1cnc2c(Oc3ccnc(Cl)c3Cl)n[nH]c2n1)[C@H]1CCCC[C@H]1N [Example 44]
< 1000 | CN(c1cnc2c(Oc3ccnc(Cl)c3Cl)n[nH]c2n1)[C@@H]1CCCC[C@@H]1N [Example 45]
< 1000 | CN(c1cnc2c(N3CCc4c(C(N)=O)cccc43)n[nH]c2n1)[C@@H]1CCCC[C@@H]1N [Example 46]
